Test results as given in the kinase profiling compilation of Christmann-Franck et al. (2016).

Key:
[1] = target: PIM1 (human) (UniProt P11309); experiment: SelectScreen, TR FRET
[2] = target: PIM2 (human) (UniProt Q9P1W9); experiment: SelectScreen, TR FRET
[3] = target: STK17A (human) (UniProt Q9UEE5); experiment: KINOMEscan competition binding; details: compound 10.0 µM
[4] = target: MAPKAPK5 (human) (UniProt Q8IW41); experiment: KINOMEscan competition binding; details: compound 10.0 µM
[5] = target: PLK4 (human) (UniProt O00444); experiment: KINOMEscan competition binding; details: compound 10.0 µM
[6] = target: TLK1 (human) (UniProt Q9UKI8); experiment: KINOMEscan competition binding; details: compound 10.0 µM
[7] = target: GAK (human) (UniProt O14976); experiment: KINOMEscan competition binding; details: compound 10.0 µM
[8] = target: AAK1 (human) (UniProt Q2M2I8); experiment: KINOMEscan competition binding; details: compound 10.0 µM
[9] = target: MYLK (human) (UniProt Q15746); experiment: KINOMEscan competition binding; details: compound 10.0 µM
[10] = target: MAP3K7 (human) (UniProt O43318); experiment: KINOMEscan competition binding; details: compound 10.0 µM
[11] = target: CLK3 (human) (UniProt P49761); experiment: KINOMEscan competition binding; details: compound 10.0 µM
[12] = target: JAK1 JH2 pseudokinase (human) (UniProt P23458); experiment: KINOMEscan competition binding; details: compound 10.0 µM
[13] = target: MAP2K2 (human) (UniProt P36507); experiment: KINOMEscan competition binding; details: compound 10.0 µM
[14] = target: CAMKK1 (human) (UniProt Q8N5S9); experiment: KINOMEscan competition binding; details: compound 10.0 µM
[15] = target: CDK7 (human) (UniProt P50613); experiment: KINOMEscan competition binding; details: compound 10.0 µM
[16] = target: RPS6KA1 KD2 (human) (UniProt Q15418); experiment: KINOMEscan competition binding; details: compound 10.0 µM
[17] = target: RPS6KA2 KD2 (human) (UniProt Q15349); experiment: KINOMEscan competition binding; details: compound 10.0 µM
[18] = target: ROCK2 (human) (UniProt O75116); experiment: KINOMEscan competition binding; details: compound 10.0 µM
[19] = target: HIPK1 (human) (UniProt Q86Z02); experiment: KINOMEscan competition binding; details: compound 10.0 µM
[20] = target: DAPK2 (human) (UniProt Q9UIK4); experiment: KINOMEscan competition binding; details: compound 10.0 µM
[21] = target: STK17B (human) (UniProt O94768); experiment: KINOMEscan competition binding; details: compound 10.0 µM
[22] = target: CSNK2A2 (human) (UniProt P19784); experiment: KINOMEscan competition binding; details: compound 10.0 µM
[23] = target: CLK1 (human) (UniProt P49759); experiment: KINOMEscan competition binding; details: compound 10.0 µM
[24] = target: MKNK2 (human) (UniProt Q9HBH9); experiment: KINOMEscan competition binding; details: compound 10.0 µM
[25] = target: PIP4K2B (human) (UniProt P78356); experiment: KINOMEscan competition binding; details: compound 10.0 µM
[26] = target: MAP2K3 (human) (UniProt P46734); experiment: KINOMEscan competition binding; details: compound 10.0 µM
[27] = target: MAPK15 (human) (UniProt Q8TD08); experiment: KINOMEscan competition binding; details: compound 10.0 µM
[28] = target: RIPK4 (human) (UniProt P57078); experiment: KINOMEscan competition binding; details: compound 10.0 µM
[29] = target: CSNK2A1 (human) (UniProt P68400); experiment: KINOMEscan competition binding; details: compound 10.0 µM
[30] = target: TAOK1 (human) (UniProt Q7L7X3); experiment: KINOMEscan competition binding; details: compound 10.0 µM
[31] = target: RIOK2 (human) (UniProt Q9BVS4); experiment: KINOMEscan competition binding; details: compound 10.0 µM
[32] = target: DAPK3 (human) (UniProt O43293); experiment: KINOMEscan competition binding; details: compound 10.0 µM
[33] = target: CDK16 (human) (UniProt Q00536); experiment: KINOMEscan competition binding; details: compound 10.0 µM
[34] = target: TAOK3 (human) (UniProt Q9H2K8); experiment: KINOMEscan competition binding; details: compound 10.0 µM
[35] = target: TYK2 JH2 pseudokinase (human) (UniProt P29597); experiment: KINOMEscan competition binding; details: compound 10.0 µM
[36] = target: MYLK3 (human) (UniProt Q32MK0); experiment: KINOMEscan competition binding; details: compound 10.0 µM
[37] = target: CLK2 (human) (UniProt P49760); experiment: KINOMEscan competition binding; details: compound 10.0 µM
[38] = target: PIM1 (human) (UniProt P11309); experiment: KINOMEscan competition binding; details: compound 10.0 µM
[39] = target: PIK3CG (human) (UniProt P48736); experiment: KINOMEscan competition binding; details: compound 10.0 µM
[40] = target: STK24 (human) (UniProt Q9Y6E0); experiment: KINOMEscan competition binding; details: compound 10.0 µM
[41] = target: RPS6KA6 KD2 (human) (UniProt Q9UK32); experiment: KINOMEscan competition binding; details: compound 10.0 µM
[42] = target: PIM3 (human) (UniProt Q86V86); experiment: KINOMEscan competition binding; details: compound 10.0 µM
[43] = target: CLK4 (human) (UniProt Q9HAZ1); experiment: KINOMEscan competition binding; details: compound 10.0 µM
[44] = target: BMPR1B (human) (UniProt O00238); experiment: KINOMEscan competition binding; details: compound 10.0 µM
[45] = target: PIM2 (human) (UniProt Q9P1W9); experiment: KINOMEscan competition binding; details: compound 10.0 µM
[46] = target: RPS6KA4 KD2 (human) (UniProt O75676); experiment: KINOMEscan competition binding; details: compound 10.0 µM
[47] = target: DAPK1 (human) (UniProt P53355); experiment: KINOMEscan competition binding; details: compound 10.0 µM

PIM2 (human), sequence (Q9P1W9 whole entry, looked up): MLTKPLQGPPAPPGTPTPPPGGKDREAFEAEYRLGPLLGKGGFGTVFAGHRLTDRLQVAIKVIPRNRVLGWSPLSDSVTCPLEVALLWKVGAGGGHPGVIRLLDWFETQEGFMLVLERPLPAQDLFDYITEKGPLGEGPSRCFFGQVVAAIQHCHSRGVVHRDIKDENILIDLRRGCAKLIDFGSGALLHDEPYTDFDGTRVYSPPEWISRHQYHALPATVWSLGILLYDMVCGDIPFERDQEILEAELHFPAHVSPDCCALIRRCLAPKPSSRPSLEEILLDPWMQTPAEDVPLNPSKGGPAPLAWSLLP
PIM1 (human), sequence (P11309 whole entry, looked up): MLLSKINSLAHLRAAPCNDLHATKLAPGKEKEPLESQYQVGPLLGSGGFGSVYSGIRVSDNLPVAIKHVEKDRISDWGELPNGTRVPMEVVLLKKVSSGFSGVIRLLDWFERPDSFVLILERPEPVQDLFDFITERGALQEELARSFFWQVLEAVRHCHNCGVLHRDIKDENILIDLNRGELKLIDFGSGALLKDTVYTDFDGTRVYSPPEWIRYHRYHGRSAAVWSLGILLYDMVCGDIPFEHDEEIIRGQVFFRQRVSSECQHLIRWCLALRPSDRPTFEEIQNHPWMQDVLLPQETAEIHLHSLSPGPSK
PLK4 (human), sequence (O00444 whole entry, looked up): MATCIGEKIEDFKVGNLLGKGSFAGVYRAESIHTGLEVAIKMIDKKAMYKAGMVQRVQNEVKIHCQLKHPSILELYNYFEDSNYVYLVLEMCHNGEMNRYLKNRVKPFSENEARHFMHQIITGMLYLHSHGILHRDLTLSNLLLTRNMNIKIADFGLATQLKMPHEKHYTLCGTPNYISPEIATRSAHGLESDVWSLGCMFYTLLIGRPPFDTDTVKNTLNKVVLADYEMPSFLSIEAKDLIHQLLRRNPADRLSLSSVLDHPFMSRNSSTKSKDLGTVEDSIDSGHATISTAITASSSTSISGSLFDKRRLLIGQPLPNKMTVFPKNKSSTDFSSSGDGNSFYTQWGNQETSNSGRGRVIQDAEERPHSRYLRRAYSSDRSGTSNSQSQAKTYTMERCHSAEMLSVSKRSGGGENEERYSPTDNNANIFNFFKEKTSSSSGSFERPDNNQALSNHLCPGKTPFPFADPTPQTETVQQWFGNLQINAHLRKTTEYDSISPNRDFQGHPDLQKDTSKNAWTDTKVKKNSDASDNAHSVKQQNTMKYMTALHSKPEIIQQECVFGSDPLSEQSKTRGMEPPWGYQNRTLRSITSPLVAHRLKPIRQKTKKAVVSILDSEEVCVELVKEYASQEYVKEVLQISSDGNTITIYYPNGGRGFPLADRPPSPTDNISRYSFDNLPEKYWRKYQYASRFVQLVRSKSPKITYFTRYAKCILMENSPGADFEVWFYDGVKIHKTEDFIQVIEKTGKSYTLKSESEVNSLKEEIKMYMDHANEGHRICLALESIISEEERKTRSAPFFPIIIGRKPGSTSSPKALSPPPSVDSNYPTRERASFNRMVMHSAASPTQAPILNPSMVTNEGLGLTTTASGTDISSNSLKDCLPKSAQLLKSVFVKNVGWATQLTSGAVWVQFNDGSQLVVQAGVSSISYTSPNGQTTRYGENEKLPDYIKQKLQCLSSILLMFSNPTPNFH
MAP3K7 (human), sequence (O43318 whole entry, looked up): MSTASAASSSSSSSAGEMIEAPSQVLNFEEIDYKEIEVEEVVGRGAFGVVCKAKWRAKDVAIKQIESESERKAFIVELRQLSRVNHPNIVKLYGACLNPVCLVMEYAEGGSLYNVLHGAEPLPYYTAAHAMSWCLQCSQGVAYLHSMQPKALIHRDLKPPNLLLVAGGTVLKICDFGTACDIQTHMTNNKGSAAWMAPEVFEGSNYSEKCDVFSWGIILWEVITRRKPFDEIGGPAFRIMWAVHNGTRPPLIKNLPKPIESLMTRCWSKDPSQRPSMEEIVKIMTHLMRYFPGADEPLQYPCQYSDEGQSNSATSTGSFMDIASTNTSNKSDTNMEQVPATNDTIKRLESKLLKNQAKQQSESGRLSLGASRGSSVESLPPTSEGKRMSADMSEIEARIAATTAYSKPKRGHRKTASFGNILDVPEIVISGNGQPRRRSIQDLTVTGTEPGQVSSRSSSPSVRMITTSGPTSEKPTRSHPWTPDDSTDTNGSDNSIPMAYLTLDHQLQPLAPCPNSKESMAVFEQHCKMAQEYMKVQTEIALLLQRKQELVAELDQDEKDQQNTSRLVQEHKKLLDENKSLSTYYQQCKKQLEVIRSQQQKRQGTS
RPS6KA4 KD2 (human), sequence (O75676 whole entry, looked up): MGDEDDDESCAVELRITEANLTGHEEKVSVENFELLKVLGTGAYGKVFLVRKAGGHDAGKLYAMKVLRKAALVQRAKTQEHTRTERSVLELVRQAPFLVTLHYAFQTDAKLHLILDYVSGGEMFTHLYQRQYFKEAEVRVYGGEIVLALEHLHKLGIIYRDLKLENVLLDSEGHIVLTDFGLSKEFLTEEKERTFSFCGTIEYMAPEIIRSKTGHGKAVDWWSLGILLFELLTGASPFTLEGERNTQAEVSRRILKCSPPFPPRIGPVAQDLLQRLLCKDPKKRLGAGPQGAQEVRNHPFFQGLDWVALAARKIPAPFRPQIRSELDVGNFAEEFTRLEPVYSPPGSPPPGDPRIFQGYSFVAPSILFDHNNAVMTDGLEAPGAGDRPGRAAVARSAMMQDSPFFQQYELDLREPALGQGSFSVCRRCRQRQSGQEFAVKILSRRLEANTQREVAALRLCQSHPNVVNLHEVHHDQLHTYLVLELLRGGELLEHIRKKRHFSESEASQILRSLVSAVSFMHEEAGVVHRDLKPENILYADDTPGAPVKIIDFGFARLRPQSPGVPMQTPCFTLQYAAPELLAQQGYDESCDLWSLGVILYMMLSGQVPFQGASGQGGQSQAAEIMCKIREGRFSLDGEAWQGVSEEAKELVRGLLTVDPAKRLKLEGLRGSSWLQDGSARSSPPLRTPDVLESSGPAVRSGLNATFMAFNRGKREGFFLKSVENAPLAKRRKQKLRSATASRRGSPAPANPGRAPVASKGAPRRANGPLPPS
CDK7 (human), sequence (P50613 whole entry, looked up): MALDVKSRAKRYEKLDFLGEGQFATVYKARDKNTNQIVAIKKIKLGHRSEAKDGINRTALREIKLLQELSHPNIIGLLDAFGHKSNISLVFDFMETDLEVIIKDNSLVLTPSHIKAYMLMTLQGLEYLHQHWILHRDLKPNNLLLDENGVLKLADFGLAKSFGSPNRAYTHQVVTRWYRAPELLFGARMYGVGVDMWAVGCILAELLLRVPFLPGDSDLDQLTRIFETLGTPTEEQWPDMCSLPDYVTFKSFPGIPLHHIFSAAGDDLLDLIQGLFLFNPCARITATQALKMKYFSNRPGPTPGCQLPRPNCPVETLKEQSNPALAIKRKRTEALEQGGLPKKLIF
CLK3 (human), sequence (P49761 whole entry, looked up): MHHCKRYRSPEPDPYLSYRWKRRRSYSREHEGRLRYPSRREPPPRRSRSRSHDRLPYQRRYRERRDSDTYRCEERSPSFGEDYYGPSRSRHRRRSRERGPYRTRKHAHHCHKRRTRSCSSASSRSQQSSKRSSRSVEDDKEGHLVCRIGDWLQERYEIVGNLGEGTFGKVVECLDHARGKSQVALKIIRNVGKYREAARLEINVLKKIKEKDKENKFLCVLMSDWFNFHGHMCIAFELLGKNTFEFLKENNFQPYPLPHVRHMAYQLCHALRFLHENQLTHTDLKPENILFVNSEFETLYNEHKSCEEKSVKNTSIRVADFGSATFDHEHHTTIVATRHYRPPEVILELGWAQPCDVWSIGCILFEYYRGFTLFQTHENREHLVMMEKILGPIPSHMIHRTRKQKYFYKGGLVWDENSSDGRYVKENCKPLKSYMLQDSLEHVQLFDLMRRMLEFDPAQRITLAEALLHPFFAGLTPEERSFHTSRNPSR
CSNK2A1 (human), sequence (P68400 whole entry, looked up): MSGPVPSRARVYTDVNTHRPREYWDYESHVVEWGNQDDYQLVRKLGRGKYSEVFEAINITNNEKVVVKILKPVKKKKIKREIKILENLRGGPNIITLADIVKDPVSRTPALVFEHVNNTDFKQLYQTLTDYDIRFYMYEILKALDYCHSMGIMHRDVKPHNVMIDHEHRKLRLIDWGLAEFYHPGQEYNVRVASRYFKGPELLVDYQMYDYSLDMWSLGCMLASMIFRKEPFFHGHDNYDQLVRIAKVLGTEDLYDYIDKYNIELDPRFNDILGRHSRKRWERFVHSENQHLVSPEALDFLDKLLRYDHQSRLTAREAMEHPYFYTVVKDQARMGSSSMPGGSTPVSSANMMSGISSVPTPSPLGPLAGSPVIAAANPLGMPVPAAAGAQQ
CSNK2A2 (human), sequence (P19784 whole entry, looked up): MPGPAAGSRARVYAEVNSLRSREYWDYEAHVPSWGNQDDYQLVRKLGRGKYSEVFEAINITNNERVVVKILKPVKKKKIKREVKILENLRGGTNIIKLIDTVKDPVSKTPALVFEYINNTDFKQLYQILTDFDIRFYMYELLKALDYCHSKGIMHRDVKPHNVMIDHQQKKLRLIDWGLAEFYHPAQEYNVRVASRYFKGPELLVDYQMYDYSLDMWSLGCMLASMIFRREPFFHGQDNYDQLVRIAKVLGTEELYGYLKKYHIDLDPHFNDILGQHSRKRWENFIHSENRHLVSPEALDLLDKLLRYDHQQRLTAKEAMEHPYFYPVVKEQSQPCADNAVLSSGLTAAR

Q: How did the IC50 [1] turn out when `N=C1NC(=O)/C(=C/c2ccc(-c3ccc(C(=O)Nc4ccc(N5CCNCC5)cc4)cc3O)o2)S1` was run?
A: 128 nM

Q: And the IC50 [2]?
A: 144 nM

Q: What about the kinase still bound, per cent of control [3] of the same molecule?
A: 0.1%

Q: What about the kinase still bound, per cent of control [4] of the same molecule?
A: 32%

Q: What about the kinase still bound, per cent of control [5] of the same molecule?
A: 23%

Q: What about the kinase still bound, per cent of control [6] of the same molecule?
A: 14%

Q: What about the kinase still bound, per cent of control [7] of the same molecule?
A: 29%

Q: What about the kinase still bound, per cent of control [8] of the same molecule?
A: 31%

Q: What about the kinase still bound, per cent of control [9] of the same molecule?
A: 32%

Q: What about the kinase still bound, per cent of control [10] of the same molecule?
A: 8.6%

Q: And the kinase still bound, per cent of control [11]?
A: 25%

Q: And the kinase still bound, per cent of control [12]?
A: 26%

Q: And the kinase still bound, per cent of control [13]?
A: 33%

Q: And the kinase still bound, per cent of control [14]?
A: 32%

Q: What about the kinase still bound, per cent of control [15] of the same molecule?
A: 3.2%

Q: And the kinase still bound, per cent of control [16]?
A: 21%

Q: What about the kinase still bound, per cent of control [17] of the same molecule?
A: 25%

Q: What about the kinase still bound, per cent of control [18] of the same molecule?
A: 21%

Q: And the kinase still bound, per cent of control [19]?
A: 0.65%

Q: What about the kinase still bound, per cent of control [20] of the same molecule?
A: 14%

Q: What about the kinase still bound, per cent of control [21] of the same molecule?
A: 0.6%

Q: What about the kinase still bound, per cent of control [22] of the same molecule?
A: 19%

Q: And the kinase still bound, per cent of control [23]?
A: 2.4%

Q: And the kinase still bound, per cent of control [24]?
A: 27%

Q: And the kinase still bound, per cent of control [25]?
A: 34%

Q: And the kinase still bound, per cent of control [26]?
A: 30%

Q: What about the kinase still bound, per cent of control [27] of the same molecule?
A: 0.95%

Q: What about the kinase still bound, per cent of control [28] of the same molecule?
A: 5.5%

Q: What about the kinase still bound, per cent of control [29] of the same molecule?
A: 20%

Q: And the kinase still bound, per cent of control [30]?
A: 5.4%

Q: And the kinase still bound, per cent of control [31]?
A: 29%

Q: And the kinase still bound, per cent of control [32]?
A: 15%

Q: And the kinase still bound, per cent of control [33]?
A: 18%

Q: And the kinase still bound, per cent of control [34]?
A: 7.4%

Q: What about the kinase still bound, per cent of control [35] of the same molecule?
A: 10%

Q: And the kinase still bound, per cent of control [36]?
A: 15%

Q: And the kinase still bound, per cent of control [37]?
A: 2%

Q: And the kinase still bound, per cent of control [38]?
A: 5.6%

Q: What about the kinase still bound, per cent of control [39] of the same molecule?
A: 2.1%

Q: And the kinase still bound, per cent of control [40]?
A: 25%

Q: What about the kinase still bound, per cent of control [41] of the same molecule?
A: 27%

Q: And the kinase still bound, per cent of control [42]?
A: 9%

Q: What about the kinase still bound, per cent of control [43] of the same molecule?
A: 5.8%

Q: What about the kinase still bound, per cent of control [44] of the same molecule?
A: 19%

Q: And the kinase still bound, per cent of control [45]?
A: 0.5%

Q: And the kinase still bound, per cent of control [46]?
A: 3.4%

Q: What about the kinase still bound, per cent of control [47] of the same molecule?
A: 12%
